Experimental data taken from patent US8563714B2, “Bridged spiro [2.4] heptane derivatives as ALX receptor and/or FPRL2 agonists” (Actelion Pharmaceuticals Ltd., priority 2009, dated 2013).

Assays:
human FPRL2 = target: T1, human FPRL2 (Homo sapiens, UniProt P25089); assay: Intracellular calcium measurements (FLIPR), agonistic activity in HEK293-hFPRL2-Gα16 cells; assay type: cell-based; conditions: Fluo-4 calcium FLIPR, normalized to GLY14-Humanin 100 nM
T1 construct: expressed in transfected cells; host or cells: HEK293 (HEK293-hFPRL2-Gα16)
T1 sequence (P25089 1-353): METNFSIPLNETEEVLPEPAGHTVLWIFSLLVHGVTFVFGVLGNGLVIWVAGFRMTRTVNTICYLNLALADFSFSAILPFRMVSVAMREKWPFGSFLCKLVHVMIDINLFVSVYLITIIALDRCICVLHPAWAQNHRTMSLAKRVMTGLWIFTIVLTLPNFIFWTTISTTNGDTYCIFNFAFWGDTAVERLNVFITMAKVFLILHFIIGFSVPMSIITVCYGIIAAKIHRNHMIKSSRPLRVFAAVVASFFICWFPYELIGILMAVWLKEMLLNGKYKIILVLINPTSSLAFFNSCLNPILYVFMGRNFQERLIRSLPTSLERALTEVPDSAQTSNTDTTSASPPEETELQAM
In short: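 Peak values after baseline subtraction are expressed relative to 100 nM Gly14-Humanin; compounds diluted in assay buffer from 10 mM DMSO stocks.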

human ALX receptor = target: T2, human ALX receptor (Homo sapiens, UniProt P25090); assay: Intracellular calcium measurements (FLIPR), agonistic activity in HEK293-hALXR-Gα16 cells; assay type: cell-based; conditions: Fluo-4 calcium FLIPR, normalized to WKYMVm 10 nM
T2 construct: expressed in transfected cells; host or cells: HEK293 (HEK293-hALXR-Gα16)
T2 sequence (P25090 1-351): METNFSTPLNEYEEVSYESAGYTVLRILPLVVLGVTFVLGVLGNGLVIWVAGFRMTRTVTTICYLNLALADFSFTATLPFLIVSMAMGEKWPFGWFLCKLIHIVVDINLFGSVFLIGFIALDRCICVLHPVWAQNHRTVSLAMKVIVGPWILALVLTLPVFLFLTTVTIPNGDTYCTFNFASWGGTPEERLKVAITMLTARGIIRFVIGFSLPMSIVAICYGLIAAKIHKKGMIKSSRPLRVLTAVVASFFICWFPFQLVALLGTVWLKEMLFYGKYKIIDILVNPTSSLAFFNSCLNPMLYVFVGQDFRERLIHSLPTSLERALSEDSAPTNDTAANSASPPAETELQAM
In short: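 HEK293 cells expressing hALXR and Gα16 were loaded with 1 μM Fluo-4 AM and 20 mM HEPES for 60 min at 37°C, then exposed to serially diluted compound. FLIPR fluorescence was read at ex 488/em 540 nm. Baseline-subtracted peak responses were normalized to 10 nM WKYMVm.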

EC50 (human FPRL2) [nM]	EC50 (human ALX receptor) [nM]	Structure (SMILES)
6110	735	COCC(Cc1ccccc1)NC(=O)C1C(C(=O)Nc2ccc(Br)cc2)C2C=CC1C21CC1 [Example 100, (5R*)—N^5-(4-Bromophenyl)-(6R*)—N^6-[(1S)-2-methoxy-1-benzyl-ethyl]-(4S*,7R*)-[4,7-ethenylene-spiro[2.4]heptane]-5,6-dicarboxamide]
57	8.3	Cc1nc(CCNC(=O)C2C(C(=O)Nc3ccc(Br)cc3)C3CCC2C32CC2)[nH]c1C (stereo not drawn) [Example 112, (5R*)—N^5-(4-Bromophenyl)-(6R*)—N^6-(2-(4,5-dimethyl-1H-imidazol-2-yl)-ethyl)-(4S*,7R*)-[4,7-ethylene-spiro[2.4]heptane]-5,6-dicarboxamide]
15	0.35	O=C(NCCCCN1CCCC1)[C@H]1[C@H](C(=O)Nc2ccc(Br)cc2)[C@@H]2CC[C@H]1C21CC1 [Example 113, (5R)—N^5-(4-Bromophenyl)-(6R)—N^6-(4-pyrrolidin-1-yl-butyl)-(4S,7R)-[4,7-ethylene-spiro[2.4]heptane]-5,6-dicarboxamide]
1600	835	O=C(NCCCCN1CCCC1)C1C(C(=O)NCCCn2ccnc2)C2C=CC1C21CC1 (stereo not drawn) [Example 141, (5R*)—N^5-(3-(1H-Imidazol-1-yl)-propyl)-(6R*)—N^6-(4-pyrrolidin-1-yl-butyl)-(4S*,7R*)-[4,7-ethenylene-spiro[2.4]heptane]-5,6-dicarboxamide]
2370	13	Cc1cc(C)n(CCC(=O)NCC2C(C(=O)Nc3ccc(Br)cc3)C3C=CC2C32CC2)n1 (stereo not drawn) [Example 159, (5R*)—N^5-(4-Bromo-phenyl)-(6R*)-6-[(3-(3,5-dimethyl-pyrazol-1-yl)-propionylamino)-methyl]-(4S*,7R*)-[4,7-ethenylene-spiro[2.4]heptane]-5-carboxamide]
647	28	CC(=O)c1ccc(CNC(=O)[C@H]2[C@H](C(=O)NCCCCN3CCCC3)[C@H]3C=C[C@@H]2C32CC2)o1 [Example 195, (5R)—N^5-(5-Acetyl-furan-2-yl-methyl)-(6R)—N^6-(4-pyrrolidin-1-yl-butyl)-(4S,7R)-[4,7-ethenylene-spiro[2.4]heptane]-5,6-dicarboxamide]
1080	21	CC(=O)c1ccc(CNC(=O)C2C(C(=O)NCCCCN3CCCC3)C3CCC2C32CC2)o1 [Example 196, (5R)—N^5-(5-Acetyl-furan-2-yl-methyl)-(6R)—N^6-(4-pyrrolidin-1-yl-butyl)-(4S,7R)-[4,7-ethylene-spiro[2.4]heptane]-5,6-dicarboxamide]
15	2.3	CCN1CCN(CCCCNC(=O)[C@H]2[C@H](C(=O)Nc3ccc(Br)cc3)[C@@H]3C=C[C@H]2C32CC2)CC1 [Example 208, (5R)—N^5-(4-Bromophenyl)-(6R)—N^6-(4-(4-ethyl-piperazin-1-yl)-butyl)-(4S,7R)-[4,7-ethenylene-spiro[2.4]heptane]-5,6-dicarboxamide]
58	0.07	O=C(NCCCCN1CCCCC1)[C@H]1[C@H](C(=O)Nc2ccc(Br)cc2)[C@@H]2C=C[C@H]1C21CC1 [Example 209, (5R)—N^5-(4-Bromophenyl)-(6R)—N^6-(4-piperidino-butyl)-(4S,7R)-[4,7-ethenylene-spiro[2.4]heptane]-5,6-dicarboxamide]
200	0.4	O=C(NCCCCN1CCC1)[C@H]1[C@H](C(=O)Nc2ccc(Br)cc2)[C@@H]2C=C[C@H]1C21CC1 [Example 210, (5R)—N^5-(4-Bromophenyl)-(6R)—N^6-(4-(azetidin-1-yl)butyl)-(4S,7R)-[4,7-ethenylene-spiro[2.4]heptane]-5,6-dicarboxamide]
423	0.53	O=C(NCCCCN1CCOCC1)[C@H]1[C@H](C(=O)Nc2ccc(Br)cc2)[C@@H]2C=C[C@H]1C21CC1 [Example 211, (5R)—N^5-(4-Bromophenyl)-(6R)—N^6-(4-morpholino-butyl)-(4S,7R)-[4,7-ethenylene-spiro[2.4]heptane]-5,6-dicarboxamide]
12	0.89	CN1CCCN(CCCCNC(=O)[C@H]2[C@H](C(=O)Nc3ccc(Br)cc3)[C@@H]3C=C[C@H]2C32CC2)CC1 [Example 212, (5R)—N^5-(4-Bromophenyl)-(6R)—N^6-(4-(4-methyl-1,4-diazepan-1-yl)butyl)-(4S,7R)-[4,7-ethenylene-spiro[2.4]heptane]-5,6-dicarboxamide]
16	4.1	CN1CCN(CCCCNC(=O)[C@H]2[C@H](C(=O)Nc3ccc(Br)cc3)[C@@H]3C=C[C@H]2C32CC2)CC1 [Example 213, (5R)—N^5-(4-Bromophenyl)-(6R)—N^6-(4-(4-methyl-piperazin-1-yl)butyl)-(4S,7R)-[4,7-ethenylene-spiro[2.4]heptane]-5,6-dicarboxamide]
338	6.1	O=C(NCCCC(=O)N1CCCC1)[C@H]1[C@H](C(=O)Nc2ccc(Br)cc2)[C@@H]2C=C[C@H]1C21CC1 [Example 214, (5R)—N^5-(4-Bromophenyl)-(6R)—N^6-(4-pyrrolidino-4-oxobutyl)-(4S,7R)-[4,7-ethenylene-spiro[2.4]heptane]-5,6-dicarboxamide]
95	0.72	O=C(NCCOCCN1CCCC1)[C@H]1[C@H](C(=O)Nc2ccc(Br)cc2)[C@@H]2C=C[C@H]1C21CC1 [Example 215, (5R)—N^5-(4-Bromophenyl)-(6R)—N^6-(2-(2-(pyrrolidin-1-yl)ethoxy)ethyl)-(4S,7R)-[4,7-ethenylene-spiro[2.4]heptane]-5,6-dicarboxamide]
297	2.7	O=C(N[C@@H]1CC[C@@H](CN2CCCC2)OC1)[C@H]1[C@H](C(=O)Nc2ccc(Br)cc2)[C@@H]2C=C[C@H]1C21CC1 [Example 216, (5R)—N^5-(4-Bromophenyl)-(6R)—N^6-((3R,6S)-6-(pyrrolidin-1-ylmethyl)tetrahydro-2H-pyran-3-yl)-(4S,7R)-[4,7-ethenylene-spiro[2.4]heptane]-5,6-dicarboxamide]
61	38	CC(=O)N1CCN(CCCCNC(=O)[C@H]2[C@H](C(=O)Nc3ccc(Br)cc3)[C@@H]3C=C[C@H]2C32CC2)CC1 [Example 217, (5R)—N^5-(4-Bromophenyl)-(6R)—N^6-(4-(4-acetyl-piperazin-1-yl)butyl)-(4S,7R)-[4,7-ethenylene-spiro[2.4]heptane]-5,6-dicarboxamide]
174	0.3	O=C(NCCCCN1CC[C@@H](F)C1)[C@H]1[C@H](C(=O)Nc2ccc(Br)cc2)[C@@H]2C=C[C@H]1C21CC1 [Example 219, (5R)—N^5-(4-Bromophenyl)-(6R)—N^6-(4((3R)-fluoropyrrolidino)butyl)-(4S,7R)-[4,7-ethenylene-spiro[2.4]heptane]-5,6-dicarboxamide]

Structure (SMILES)	EC50 (human FPRL2) [nM]	EC50 (human ALX receptor) [nM]
O=C(NCC1C(C(=O)Nc2ccc(Br)cc2)C2C=CC1C21CC1)c1cnoc1-c1ccccc1 (stereo not drawn) [Example 160, (5R*)—N^5-(4-Bromo-phenyl)-(6R*)-6-{[(5-phenyl-isoxazole-4-carbonyl)-amino]-methyl}-(4S*,7R*)-[4,7-ethenylene-spiro[2.4]heptane]-5-carboxamide]	> 25000	37
